Data published in PubChem BioAssay AID256 (DTP/NCI, 2004).
Toxic doses and inconclusive results are not listed. Rule for the calls: active = survival T/C of 150% or more; inactive = T/C below 125% in these data.

Test system: CD2F1 mice, L1210 leukemia ip, survival T/C
Experiment: NCI In Vivo Anticancer Drug Screen. Data for tumor model L1210 Leukemia (intraperitoneal) in CD2F1 (CDF1) mice
Conditions: endpoint: mean survival time, higher = longer survival
Outline: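 Each value reflects a quotient of treated over vehicle control outcomes in mice with a transplanted tumor.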

[1] = dose: 100.0 mg/kg/injection, schedule: Q01DX001 (ip), vehicle: saline with Tween-80
[2] = dose: 200.0 mg/kg/injection, schedule: Q01DX001 (ip), vehicle: saline with Tween-80
[3] = dose: 400.0 mg/kg/injection, schedule: Q01DX001 (ip), vehicle: saline with Tween-80
[4] = dose: 100.0 mg/kg/injection, schedule: Q04DX002 (ip), vehicle: saline with Tween-80
[5] = dose: 200.0 mg/kg/injection, schedule: Q04DX002 (ip), vehicle: saline with Tween-80
[6] = dose: 400.0 mg/kg/injection, schedule: Q04DX002 (ip), vehicle: saline with Tween-80
[7] = dose: 100.0 mg/kg/injection, schedule: Q04DX003 (ip), vehicle: saline with Tween-80
[8] = dose: 200.0 mg/kg/injection, schedule: Q04DX003 (ip), vehicle: saline with Tween-80
[9] = dose: 400.0 mg/kg/injection, schedule: Q04DX003 (ip), vehicle: saline with Tween-80
[10] = dose: 75.0 mg/kg/injection, schedule: Q01DX001 (ip), vehicle: saline

Measured: T/C

O=C(Cc1ccccc1)c1ccc(Cl)cc1
inactive: [1] 101 % of control | [2] 88 % of control | [3] 93 % of control

CC(=O)Nc1ccc2cc3ccc(NC(C)=O)cc3nc2c1
inactive: dose: 100.0 mg/kg/injection, schedule: Q04DX002 (ip), vehicle: saline 98 % of control | dose: 200.0 mg/kg/injection, schedule: Q04DX002 (ip), vehicle: saline 98 % of control | dose: 400.0 mg/kg/injection, schedule: Q04DX002 (ip), vehicle: saline 98 % of control

CCCCCOC(=O)COc1ccc(F)cc1F
inactive: [4] 101 % of control | [5] 105 % of control | [6] 90 % of control

COc1ccc(C(O)c2ccccc2C(=O)Nc2ccccc2)cc1 (stereo unspecified)
inactive: [7] 93 % of control | [8] 92 % of control | [9] 88 % of control

Cc1cnc(N)nc1-c1ccccc1
inactive: [1] 102 % of control | [2] 94 % of control | [3] 94 % of control

COc1cc(/C=N\NC(=O)CC#N)cc(OC)c1OC
inactive: [7] 94 % of control | [8] 98 % of control

Oc1ccc2ccccc2c1Cc1ccccc1
inactive: [7] 101 % of control | [8] 97 % of control | [9] 98 % of control

O=C1OC(=O)C2C1C1CCC2C1(c1ccccc1)c1ccccc1 (stereo unspecified)
inactive: [7] 97 % of control | [8] 97 % of control | [9] 97 % of control

CCOc1c[n+](C)c(C)s1
inactive: dose: 50.0 mg/kg/injection, schedule: Q01DX001 (ip), vehicle: carboxymethylcellulose (CMC) 94 % of control | dose: 100.0 mg/kg/injection, schedule: Q01DX001 (ip), vehicle: carboxymethylcellulose (CMC) 92 % of control | dose: 200.0 mg/kg/injection, schedule: Q01DX001 (ip), vehicle: carboxymethylcellulose (CMC) 103 % of control

Cc1cc(C)nc(N)n1
inactive: [7] 95 % of control | [8] 98 % of control | [9] 98 % of control

Cc1cccc(/C=C/c2cccc[n+]2[O-])[n+]1[O-]
inactive: dose: 100.0 mg/kg/injection, schedule: Q04DX003 (ip), vehicle: saline 103 % of control | dose: 200.0 mg/kg/injection, schedule: Q04DX003 (ip), vehicle: saline 96 % of control | dose: 400.0 mg/kg/injection, schedule: Q04DX003 (ip), vehicle: saline 96 % of control

Cc1cc(N(CCCl)CCCl)ccc1C1N(Cc2ccc(N(C)C)cc2)CCCN1Cc1ccc(N(C)C)cc1
inactive: dose: 100.0 mg/kg/injection, schedule: Q01DX009 (ip), vehicle: saline with Tween-80 101 % of control | [7] 98 % of control | dose: 200.0 mg/kg/injection, schedule: Q01DX009 (ip), vehicle: saline with Tween-80 101 % of control | [8] 101 % of control | dose: 400.0 mg/kg/injection, schedule: Q01DX009 (ip), vehicle: saline with Tween-80 108 % of control | [9] 108 % of control

CC(C)(C)OC(=O)N1CCCC1C(=O)O (stereo unspecified)
inactive: [7] 96 % of control | [8] 101 % of control | [9] 110 % of control

Cc1cc(N2C(=O)CSC2=S)ccc1Br
inactive: [1] 95 % of control | [2] 97 % of control | [3] 100 % of control

NC(=O)CC=O
inactive: [10] 98 % of control | dose: 150.0 mg/kg/injection, schedule: Q01DX001 (ip), vehicle: saline 93 % of control | dose: 300.0 mg/kg/injection, schedule: Q01DX001 (ip), vehicle: saline 95 % of control

CC1(C)N=C(N)N=C(N)N1c1ccc(OCC(=O)N2CCOCC2)c(Cl)c1
inactive: dose: 6.25 mg/kg/injection, schedule: Q01DX009 (ip), vehicle: saline 98 % of control | dose: 12.5 mg/kg/injection, schedule: Q01DX009 (ip), vehicle: saline 97 % of control | dose: 25.0 mg/kg/injection, schedule: Q01DX009 (ip), vehicle: saline 92 % of control | dose: 50.0 mg/kg/injection, schedule: Q01DX009 (ip), vehicle: saline 98 % of control | dose: 100.0 mg/kg/injection, schedule: Q01DX009 (ip), vehicle: saline 98 % of control

CCN(CC)CCSC(=O)C(O)(c1ccccc1)c1cccc(C)c1 (stereo unspecified)
inactive: [10] 105 % of control

CC(C)c1ccc2c(c1)CC[C@H]1[C@](C)(CN=C(N)CCl)CCC[C@]21C
inactive: [4] 102 % of control | [5] 95 % of control

O=C(O)C1CCC=CC1c1ccccc1 (stereo unspecified)
inactive: [4] 95 % of control | [5] 102 % of control | [6] 91 % of control

Oc1ccc(Br)cc1/C=N/c1nc(-c2ccccc2)cs1.Oc1ccc(Br)cc1/C=N/c1nc(-c2ccccc2)cs1.[Zn]
inactive: dose: 25.0 mg/kg/injection, schedule: Q01DX001 (ip), vehicle: saline 100 % of control | dose: 50.0 mg/kg/injection, schedule: Q01DX001 (ip), vehicle: saline 100 % of control | dose: 100.0 mg/kg/injection, schedule: Q01DX001 (ip), vehicle: saline 100 % of control
